EC50 data for 9 compounds are collected here from US20250136606A1, “MODULATORS OF TRPML, THEIR COMPOSITIONS AND METHODS OF USE” (Caraway Therapeutics, Inc., priority 2021, published 2025).

Molecules are shown by their SMILES.

The term EC50 denotes the concentration at which the effect is half-maximal.

Common to all, as to format: cell-based
What all share (conditions): fluorescent calcium assay

One assay concerns the target T1, TRPML3 (Homo sapiens, UniProt Q8TDD5).
T1 construct: expressed in transfected cells
T1 sequence (Q8TDD5 1-553): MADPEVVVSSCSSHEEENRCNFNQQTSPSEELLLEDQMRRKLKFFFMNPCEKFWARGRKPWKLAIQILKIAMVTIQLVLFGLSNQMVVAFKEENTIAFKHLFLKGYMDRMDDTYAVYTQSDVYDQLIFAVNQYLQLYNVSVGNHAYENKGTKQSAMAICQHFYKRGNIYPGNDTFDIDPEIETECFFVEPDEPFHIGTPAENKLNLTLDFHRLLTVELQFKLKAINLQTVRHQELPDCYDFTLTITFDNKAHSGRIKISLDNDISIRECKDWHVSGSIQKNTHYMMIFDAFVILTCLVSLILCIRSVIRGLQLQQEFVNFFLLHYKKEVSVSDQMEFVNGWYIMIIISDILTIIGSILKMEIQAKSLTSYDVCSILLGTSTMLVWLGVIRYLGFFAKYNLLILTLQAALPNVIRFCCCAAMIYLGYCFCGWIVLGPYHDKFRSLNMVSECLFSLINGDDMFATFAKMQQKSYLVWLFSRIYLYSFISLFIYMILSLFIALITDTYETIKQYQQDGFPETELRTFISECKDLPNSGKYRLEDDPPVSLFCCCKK
Briefly: Fluorescent TRPML3 assay (performed as for TRPML1, substituting the TRPML3 subtype). The gist of the method:
(§1)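 HEK-293 Trex cells with doxycycline-induced (0.5 ug/mL) surface-directed human TRPML subtype, loaded with 1 μM Fluo4-AM, resuspended in Ringer's with 10 mM calcium. Compounds at 20 μM to 6 nM final in half-log steps, triplicate; fluorescence ex 480/em 540; EC50 by non-linear regression versus plate controls.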

For another assay, the target named is TRPML1 (Homo sapiens, UniProt Q9GZU1). Briefly: Fluorescent TRPML1 assay (Fluo4-AM calcium fluorescence in doxycycline-induced HEK-293 Trex cells). The gist of the method: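 EC50 values come from non-linear regression of percent activity, normalized to on-plate positive and negative controls, with fluorescence read at 480 nm excitation and 540 nm emission. Fluo4-AM-loaded (1 µM) doxycycline-induced HEK-293 Trex cells expressing mutated human TRPML1 were exposed in 10 mM calcium Ringer's to 6 nM–20 µM compound, in triplicate.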

Another assay concerns the target T2, TRPML2 (Homo sapiens, UniProt Q8IZK6).
T2 construct: expressed in transfected cells
T2 sequence (Q8IZK6 1-566): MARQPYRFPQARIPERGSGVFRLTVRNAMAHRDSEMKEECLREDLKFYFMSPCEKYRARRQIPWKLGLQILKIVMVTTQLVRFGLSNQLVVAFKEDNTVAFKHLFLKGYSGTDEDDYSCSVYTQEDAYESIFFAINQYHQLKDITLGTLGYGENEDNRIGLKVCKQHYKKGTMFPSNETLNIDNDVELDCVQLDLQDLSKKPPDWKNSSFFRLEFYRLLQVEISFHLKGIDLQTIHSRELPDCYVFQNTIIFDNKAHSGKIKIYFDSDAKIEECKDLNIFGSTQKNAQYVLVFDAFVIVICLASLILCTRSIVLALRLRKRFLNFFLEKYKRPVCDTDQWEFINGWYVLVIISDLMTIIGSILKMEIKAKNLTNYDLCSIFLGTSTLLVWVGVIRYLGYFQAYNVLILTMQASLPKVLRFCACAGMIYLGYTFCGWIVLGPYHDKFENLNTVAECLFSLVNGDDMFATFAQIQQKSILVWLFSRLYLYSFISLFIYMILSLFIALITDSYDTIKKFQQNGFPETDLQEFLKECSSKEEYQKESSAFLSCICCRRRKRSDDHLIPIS
The assay can be described thus: Fluorescent TRPML2 assay (performed as for TRPML1, substituting the TRPML2 subtype). The gist of the method:
as §1

Chain of TRPML1 (Q9GZU1 whole entry L15A/L16A/L577A/L578A, form open): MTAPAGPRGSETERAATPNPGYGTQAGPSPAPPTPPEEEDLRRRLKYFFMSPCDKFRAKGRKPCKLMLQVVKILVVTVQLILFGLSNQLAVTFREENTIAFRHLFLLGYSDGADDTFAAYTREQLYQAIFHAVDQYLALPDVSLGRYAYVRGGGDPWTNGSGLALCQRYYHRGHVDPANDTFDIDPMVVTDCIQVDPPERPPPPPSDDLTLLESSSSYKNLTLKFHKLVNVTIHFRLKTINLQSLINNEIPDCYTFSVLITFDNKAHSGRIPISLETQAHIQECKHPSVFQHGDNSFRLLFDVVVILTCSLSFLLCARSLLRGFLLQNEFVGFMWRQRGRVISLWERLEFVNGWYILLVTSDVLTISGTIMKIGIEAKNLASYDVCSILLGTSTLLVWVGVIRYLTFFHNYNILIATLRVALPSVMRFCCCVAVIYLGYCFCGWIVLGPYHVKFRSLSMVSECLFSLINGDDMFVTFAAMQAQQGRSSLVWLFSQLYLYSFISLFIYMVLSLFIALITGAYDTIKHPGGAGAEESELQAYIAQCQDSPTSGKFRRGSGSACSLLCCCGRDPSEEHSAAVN

`C[C@@H]1CN(c2ncnc3c2c(-c2cccnc2)cn3-c2cc(F)cc(Cl)c2)CCN1C(=O)OC(C)(C)C` [Compound 222, tert-butyl (R)-4-(7-(3-chloro-5-fluorophenyl)-5-(pyridin-3-yl)-7H-pyrrolo[2,3-d]pyrimidin-4-yl)-2-methylpiperazine-1-carboxylate]: the figures for the EC50 on TRPML3, at TRPML1 and on TRPML2 were less than 100 nM, less than 100 nM and 500 to 2000 nM, respectively.

`C[C@@H]1CN(c2ncnc3c2c(-c2cnccn2)cn3-c2cc(F)cc(Cl)c2)CCN1C(=O)OC(C)(C)C` [Compound 223, tert-butyl (R)-4-(7-(3-chloro-5-fluorophenyl)-5-(pyrazin-2-yl)-7H-pyrrolo[2,3-d]pyrimidin-4-yl)-2-methylpiperazine-1-carboxylate]: the concentration giving a half-maximal response (EC50) lay in the range of 100 to 500 nM on TRPML3, 100 to 500 nM at TRPML1 and 500 to 2000 nM on TRPML2.

`C[C@@H]1CN(c2ncnc3c2c(C2CC2)cn3-c2cc(Cl)ccc2F)CCN1C(=O)OC(C)(C)C` [Compound 224, tert-butyl (R)-4-(7-(5-chloro-2-fluorophenyl)-5-cyclopropyl-7H-pyrrolo[2,3-d]pyrimidin-4-yl)-2-methylpiperazine-1-carboxylate]: the EC50 is less than 100 nM at TRPML3, less than 100 nM on TRPML1 and 100 to 500 nM at TRPML2.

In the case of `C[C@H]1CN(C(=O)OC(C)(C)C)CCN1c1ncnc2c1c(-c1cccnc1)cn2-c1cccc(Cl)c1` [Compound 225, tert-butyl (S)-4-(7-(3-chlorophenyl)-5-(pyridin-3-yl)-7H-pyrrolo[2,3-d]pyrimidin-4-yl)-3-methylpiperazine-1-carboxylate], the EC50 is less than 100 nM at TRPML3, less than 100 nM at TRPML1 and 100 to 500 nM at TRPML2.

On to `C[C@H]1CN(C(=O)OC(C)(C)C)CCN1c1ncnc2c1c(-c1cccnc1)cn2-c1cccc(F)c1` [Compound 226, tert-butyl (S)-4-(7-(3-fluorophenyl)-5-(pyridin-3-yl)-7H-pyrrolo[2,3-d]pyrimidin-4-yl)-3-methylpiperazine-1-carboxylate], for which the concentration giving a half-maximal response (EC50) is 100 to 500 nM on TRPML3, 100 to 500 nM at TRPML1 and 500 to 2000 nM at TRPML2.

With `C[C@H]1CN(C(=O)OC(C)(C)C)CCN1c1ncnc2c1c(N1CCOCC1)cn2-c1cc(F)cc(F)c1` [Compound 228, tert-Butyl (S)-4-(7-(3,5-difluorophenyl)-5-morpholino-7H-pyrrolo[2,3-d]pyrimidin-4-yl)-3-methylpiperazine-1-carboxylate], the concentration giving a half-maximal response (EC50) at TRPML3 is 100 to 500 nM; at TRPML1 it was 100 to 500 nM; on TRPML2, 500 to 2000 nM.

Turning to `C[C@@H]1CN(C(=O)OC(C)(C)C)CCN1c1ncnc2c1c(N1CCOCC1)cn2-c1cccc(Cl)c1` [Compound 229, tert-Butyl (R)-4-(7-(3-chlorophenyl)-5-morpholino-7H-pyrrolo[2,3-d]pyrimidin-4-yl)-3-methylpiperazine-1-carboxylate], the EC50 on TRPML3 lay within 100 to 500 nM; on TRPML1, 500 to 2000 nM; on TRPML2, 500 to 2000 nM.

On to `C[C@H]1CN(C(=O)OC(C)(C)C)CCN1c1ncnc2c1c(N1CCOCC1)cn2-c1cccc(Cl)c1` [Compound 230, tert-Butyl (S)-4-(7-(3-chlorophenyl)-5-morpholino-7H-pyrrolo[2,3-d]pyrimidin-4-yl)-3-methylpiperazine-1-carboxylate], for which the EC50 was less than 100 nM on TRPML3, 100 to 500 nM on TRPML1 and 100 to 500 nM on TRPML2.

Turning to `C[C@H]1CN(C(=O)OC(C)(C)C)CCN1c1ncnc2c1c(-c1ccccc1F)cn2-c1ccccn1` [Compound 231, tert-butyl (S)-4-(5-(2-fluorophenyl)-7-(pyridin-2-yl)-7H-pyrrolo[2,3-d]pyrimidin-4-yl)-3-methylpiperazine-1-carboxylate], the EC50 at TRPML3 was less than 100 nM; at TRPML1 it was less than 100 nM; on TRPML2, 100 to 500 nM.
